Measured values from PubChem BioAssay (NCI).
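Each compound was tested at five concentrations against cells in 96-well plates for 48 hours. GI50: concentration for 50% inhibition of growth. TGI denotes the concentration required for complete inhibition of growth.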

What was measured:
Assay in all cases: NCI-60 cell line screen, 48 h
[1] = tested on: SNB-19 CNS
[2] = tested on: NCI-H23 lung
[3] = tested on: HCT-116 colon
[4] = tested on: OVCAR-8 ovarian
[5] = tested on: NCI-H522 lung
[6] = tested on: IGROV1 ovarian
[7] = tested on: RXF 393 renal
[8] = tested on: ACHN renal
[9] = tested on: NCI-H226 lung
[10] = tested on: 786-0 renal
[11] = tested on: MDA-MB-435
[12] = tested on: TK-10 renal
[13] = tested on: M14 melanoma
[14] = tested on: SK-MEL-28 melanoma
[15] = tested on: RPMI-8226 leukemia
[16] = tested on: EKVX NSCLC
[17] = tested on: SNB-75 CNS
[18] = tested on: UO-31 renal
[19] = tested on: NCI-H460 lung
[20] = tested on: PC-3 prostate
[21] = tested on: SW-620 colon
[22] = tested on: OVCAR-4 ovarian
[23] = tested on: SK-MEL-5 melanoma
[24] = tested on: KM12 colon
[25] = tested on: SK-OV-3 ovarian
[26] = tested on: K-562 leukemia
[27] = tested on: UACC-62 melanoma
[28] = tested on: CCRF-CEM leukemia
[29] = tested on: HT29 colon

## COc1cc(O)c2c(c1)[C@H]1O[C@@H]1C[C@H](O)[C@H](O)C(=O)/C=C\C[C@H](C)OC2=O
[1]
  GI50: 8.59 µM
  TGI: > 33.3 µM
[2]
  GI50: 1.95 µM
  TGI: > 27.3 µM
[3]
  GI50: 0.779 µM
  TGI: > 17.5 µM
[4]
  GI50: 6.08 µM
  TGI: > 28.6 µM
[5]
  GI50: 0.599 µM
  TGI: 6.42 µM
[6]
  GI50: 1.27 µM
  TGI: > 33.3 µM
[7]
  GI50: 1.56 µM
  TGI: 8.19 µM
[8]
  GI50: 2.14 µM
  TGI: > 33.3 µM
[9]
  GI50: 3.71 µM
  TGI: > 27.1 µM
[10]
  GI50: 4.87 µM
  TGI: 27.4 µM
[11]
  GI50: 0.298 µM
  TGI: 7.15 µM
[12]
  GI50: 1.69 µM
  TGI: 20.3 µM
[13]
  GI50: 0.0483 µM
  TGI: 6.84 µM
[14]
  GI50: 0.0445 µM
  TGI: 2.32 µM
[15]
  GI50: 1.5 µM
  TGI: 14.5 µM
[16]
  GI50: 3.88 µM
  TGI: > 30.8 µM
[17]
  GI50: 6.11 µM
  TGI: > 33.3 µM
[18]
  GI50: 0.561 µM
  TGI: > 21.6 µM
[19]
  GI50: 4.96 µM
  TGI: > 21.2 µM
[20]
  GI50: 11.5 µM
  TGI: > 33.3 µM
[21]
  GI50: 0.56 µM
  TGI: 6.36 µM
[22]
  GI50: 1.07 µM
  TGI: > 33.3 µM
[23]
  GI50: 1.58 µM
  TGI: 10.3 µM
[24]
  GI50: 12.2 µM
  TGI: > 33.3 µM
[25]
  GI50: 24 µM
  TGI: > 33.3 µM
[26]
  GI50: 2.09 µM
  TGI: > 33.3 µM
[27]
  GI50: 0.114 µM
  TGI: 5.33 µM
[28]
  GI50: 1.54 µM
  TGI: > 33.3 µM
[29]
  GI50: 0.0883 µM
